{"source": "patent US20050059641A1", "about": "“Compositions and methods for treating and preventing cancer using analogs of vitamin D” (Aphios Corporation, priority 2003, published 2005)", "key": {"[1]": {"test_system": "breast cancer cells (MCF-7)", "experiment": "microscopic examination of the cells, MCF-7", "format": "cell-based", "conditions": "MCF-7, treated for sixteen (16) hours"}, "[2]": {"test_system": "keratinocytes (primary cells)", "experiment": "3H-thymidine incorporation assay, keratinocytes", "format": "cell-based, human", "conditions": "compared to 1,25(OH)2D3", "excerpt": "(§1) It is well known that secretory epithelial cells are the main sites for the development of cancers of the breast, prostate and various other organs.\n(§2) In a study, investigators compared the growth-inhibitory effects of 25-OH-D3-3-BE and 1,25(OH)2D3 in several VDR-positive epithelial cells, e.g. keratinocytes (primary skin cells), MCF-7 cells (breast cancer cells), hormone-sensitive LNCaP and hormone-refractory PC3 cells (prostate cancer cells), and PZ-HPV-7 (papillovirus immortalized normal prostate cells) by using ^3H-thymidine incorporation assays (FIGS. 14-19)."}, "[3]": {"test_system": "hormone-refractory PC3 cells", "experiment": "microscopic examination of the cells, PC3", "format": "cell-based, human", "conditions": "PC3, treated for sixteen (16) hours"}, "[4]": {"test_system": "immortalized normal prostate cells (PZ-HPV-7)", "experiment": "microscopic examination of the cells, PZ-HPV-7", "format": "cell-based", "conditions": "PZ-HPV-7, treated for sixteen (16) hours"}, "[5]": {"test_system": "MCF-7 cells (breast cancer cells)", "experiment": "3H-thymidine incorporation assay, MCF-7", "format": "cell-based", "conditions": "compared to 1,25(OH)2D3", "excerpt": "as §1\nIt is well-established that the biological properties of 1,25(OH)2D3 and its analogs are mediated by their interaction with VDR.\nas §2"}, "[6]": {"test_system": "PC-3 cells", "experiment": "DNA-fragmentation analysis", "format": "cell-based, human", "conditions": "250 nM, 10 hours", "procedure": "(a) DNA-fragmentation analysis: PC-3 cells (2×10^6) were treated with 250 nM of 1,25(OH)2D3, 25-OH-D3 or 25-OH-D3-3-BE for 10 hours. The cells were harvested and lysed in 0.5 ml lysis buffer (20 mM Tris-HCl, 10 mM EDTA, 0.5% Triton X-100, pH 8.0), and DNA was extracted using phenol-chloroform procedure. The DNA was resuspended in 0.1 ml of 20 mM Tris-HCl, pH 8 and treated with Rnase, followed by electrophoresis on 1.2% agarose gel in TAE. The DNA was visualized under UV light after ethidinium bromide staining."}, "[7]": {"test_system": "hormone-sensitive LNCaP cells", "experiment": "microscopic examination of the cells, LNCaP", "format": "cell-based, human", "conditions": "treated for sixteen (16) hours"}, "[8]": {"test_system": "PZ-HPV-7 (papillovirus immortalized normal prostate cells)", "experiment": "3H-thymidine incorporation assay, PZ-HPV-7", "format": "cell-based", "conditions": "PZ-HPV-7 cells; for effect on proliferation (3H-thymidine incorporation): 10^−6M, 16 hours; for antiproliferative effect (3H-thymidine incorporation): compared to 1,25(OH)2D3", "procedure": "as §1\n(§3) The inventors further studied the effect of 1,25(OH)2D3-3-BE on LNCAP cells (most closely resembling human hormone-sensitive prostate cancer) and PZ-HPV-7 cells (immortalized normal prostate cells). The cells were treated with ethanol or 10^−6M of either 1,25(OH)2D3 or 1,25(OH)2D3-3-BE for 16 hours and the effect on proliferation was determined by ^3H-thymidine incorporation assays as described earlier. The viable cell count was determined by Methylene blue assay. The Methylene blue assay is a simple colorimetric method that is widely used to determine the viable cell count.\nas §2"}, "[9]": {"test_system": "LNCaP cells (prostate cancer cells)", "experiment": "3H-thymidine incorporation assay, LNCaP", "format": "cell-based, human", "conditions": "for effect on proliferation (3H-thymidine incorporation): 10^−6M, 16 hours; for dose-dependency of antiproliferative effect: 10^−8-10^−6M; for antiproliferative effect (3H-thymidine incorporation): compared to 1,25(OH)2D3", "procedure": "as §3\nThe inventors studied dose-dependency of antiproliferation and cytotoxicity by 1,25(OH)2D3 or 1,25(OH)2D3-3-BE in LNCaP cells. The cells were treated with 10^−8-10^−6M of either 1,25(OH)2D3 or 1,25(OH)2D3-3-BE or ethanol (used as a control). The effect on proliferation and viable cell count were determined by using ^3H-thymidine incorporation and Methylene blue assay respectively. […]\nas §2"}, "[10]": {"test_system": "primary cultures of normal human keratinocytes", "experiment": "microscopic examination of the cells, keratinocytes", "format": "cell-based", "conditions": "treated for sixteen (16) hours"}, "[11]": {"test_system": "PC3 cells (prostate cancer cells)", "experiment": "3H-thymidine incorporation assay, PC3", "format": "cell-based, human", "conditions": "for antiproliferative effect (3H-thymidine incorporation): PC3 cells, compared to 1,25(OH)2D3", "excerpt": "as §1, §2\nSince 25-OH-D3-3-BE contains an ester bond, its hydrolysis by esterases in growing cells would produce equimolar amounts of bromoacetic acid (BAA) and 25-OH-D3 (see, FIG. 21).\nFurthermore, fetal calf serum (FCS) contains many proteins, including vitamin D-binding protein, which potentially could absorb 25-OH-D3-3-BE before it reacts with VDR. Typically, the assays described herein were carried out in a media containing 10% FCS (after serum-depriving the cells for 15 hours)."}, "[12]": {"test_system": "intestinal cancer Caco-2 cells", "conditions": "compared with 1,25(OH)2D3; cited from earlier work"}, "[13]": {"biological_target": "vitamin D receptor, VDR (Homo sapiens, UniProt P11473)", "sequence (P11473 whole entry)": "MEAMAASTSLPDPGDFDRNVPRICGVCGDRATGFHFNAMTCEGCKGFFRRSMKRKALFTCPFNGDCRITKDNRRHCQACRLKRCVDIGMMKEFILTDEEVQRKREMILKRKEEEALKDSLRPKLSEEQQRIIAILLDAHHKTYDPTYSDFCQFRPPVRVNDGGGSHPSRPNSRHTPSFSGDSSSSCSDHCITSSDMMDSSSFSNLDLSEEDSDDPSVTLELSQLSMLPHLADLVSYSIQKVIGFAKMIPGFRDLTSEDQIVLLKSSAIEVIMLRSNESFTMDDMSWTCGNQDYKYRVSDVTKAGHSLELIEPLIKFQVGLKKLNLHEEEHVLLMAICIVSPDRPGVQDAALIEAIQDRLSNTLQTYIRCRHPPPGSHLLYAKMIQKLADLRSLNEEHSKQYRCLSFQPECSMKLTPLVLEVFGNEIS", "conditions": "cited from earlier work"}, "[14]": {"test_system": "PZ-HPV-7 cells", "experiment": "Methylene blue assay, viable cell count, PZ-HPV-7", "format": "cell-based", "conditions": "10^−6M, 16 hours"}, "[15]": {"test_system": "VDR-regulated genes", "conditions": "higher level sustained for a longer duration at a lower concentration of the analog; cited from earlier work"}, "[16]": {"test_system": "LNCaP cells", "experiment": "Methylene blue assay, viable cell count, LNCaP", "conditions": "10^−6M, 16 hours", "procedure": "as §3\nThe inventors studied dose-dependency of antiproliferation and cytotoxicity by 1,25(OH)2D3 or 1,25(OH)2D3-3-BE in LNCaP cells. The cells were treated with 10^−8-10^−6M of either 1,25(OH)2D3 or 1,25(OH)2D3-3-BE or ethanol (used as a control). The effect on proliferation and viable cell count were determined by using ^3H-thymidine incorporation and Methylene blue assay respectively."}, "[17]": {"experiment": "in vivo toxicity study in CD-1 mice", "conditions": "CD-1 mice; for Body Weight On Day 0: beginning of the experiment", "excerpt": "Investigators completed an in vivo study to determine the toxicity of 25-OH-D3-3-BE at various doses in CD-1 mice. The animals (average weight ˜30 gms) were maintained with normal chow and water ad libitum. […] At the end of the experiment the animals were lightly anesthetized and blood collected after decapitation for serum calcium-analysis. […] Frequency of administration, body weights at the beginning and at the end of the experiment and serum calcium values are given in the accompanying Table 1."}, "[18]": {"biological_target": "VDR (Homo sapiens, UniProt P11473)", "sequence (P11473 whole entry, species assumed)": "as the sequence (P11473 whole entry) above", "conditions": "compared with 1,25(OH)2D3; cited from earlier work"}, "[19]": {"test_system": "prostate tumor induced with PC-3 cells", "experiment": "in vivo effect in mice bearing prostate tumor induced with PC-3 cells", "design": "species or system male SCID mice", "conditions": "SCID mice with PC-3 tumor; 25-OH-D3 10 μg or 25-OH-D3-3-BE 13.2 μg (molar equivalent) i.p. in alternate days for two weeks", "procedure": "Sesame oil solutions (200 μl) of either 25-OH-D3 (10 μg) or 25-OH-D3-3-BE (13.2 μg, molar equivalent of 25-OH-D3) or vehicle were administered i.p. in alternate days for two weeks. […] At the end, mice were anesthetized, tumors were removed, and blood was collected. Tumors were embedded in paraffin and sections were made."}}, "note": "“Also recorded” adds a separate entry of the source.", "data": [{"smiles": "C=C1/C(=C\\C=C2/CCC[C@]3(C)[C@@H]([C@H](C)CCCC(C)(C)O)CC[C@@H]23)C[C@@H](O)C[C@@H]1O", "note": "[1,25(OH)2D3, 1-α,25-dihydroxyvitamin D3, reference compound]", "values": [{"measurement": "microscopic appearance of the cells", "setting": "[1]", "value": "appeared normal"}, {"measurement": "antiproliferative effect (3H-thymidine incorporation)", "setting": "[2]", "value": "dose-dependant antiproliferation"}, {"measurement": "microscopic appearance of the cells", "setting": "[3]", "value": "appeared normal"}, {"measurement": "microscopic appearance of the cells", "setting": "[4]", "value": "appeared normal"}, {"measurement": "antiproliferative effect (3H-thymidine incorporation)", "setting": "[5]", "value": "dose-dependant antiproliferation"}, {"measurement": "DNA fragmentation (apoptosis)", "setting": "[6]", "value": "no such DNA cleavage was observed"}, {"measurement": "microscopic appearance of the cells", "setting": "[7]", "value": "appeared normal"}, {"measurement": "effect on proliferation (3H-thymidine incorporation)", "setting": "[8]", "value": "only inhibition of proliferation"}, {"measurement": "antiproliferative effect (3H-thymidine incorporation)", "setting": "[8]", "value": "dose-dependant antiproliferation"}, {"measurement": "effect on proliferation (3H-thymidine incorporation)", "setting": "[9]", "value": "only inhibition of proliferation"}, {"measurement": "dose-dependency of antiproliferative effect", "setting": "[9]", "value": "most pronounced at 10^−6M"}, {"measurement": "antiproliferative effect (3H-thymidine incorporation)", "setting": "[9]", "value": "dose-dependant antiproliferation"}, {"measurement": "microscopic appearance of the cells", "setting": "[10]", "value": "appeared normal"}, {"measurement": "antiproliferative effect (3H-thymidine incorporation)", "setting": "[11]", "value": "dose-dependant antiproliferation"}]}, {"smiles": "C=C1/C(=C\\C=C2/CCC[C@@]3(C)C2CC[C@@H]3C(C)CCCC(C)(C)O)C[C@@H](OC(=O)CBr)CC1O", "note": "(stereo partly drawn) [1,25(OH)2D3-3-BE, 1α,25-dihydroxy-vitamin D3-3β-(2)-bromoacetate]", "values": [{"measurement": "microscopic appearance of the cells", "setting": "[1]", "value": "appeared normal"}, {"measurement": "calcemic index", "setting": "[12]", "value": "lower calcemic index than 1,25(OH)2D3"}, {"measurement": "antiproliferative effect (3H-thymidine incorporation)", "setting": "[2]", "value": "stronger antiproliferative effect; also recorded: dose-dependant antiproliferation"}, {"measurement": "microscopic appearance of the cells", "setting": "[3]", "value": "appeared to have undergone apoptosis"}, {"measurement": "speed of cross-linking to VDR", "setting": "[13]", "value": "extremely rapid"}, {"measurement": "microscopic appearance of the cells", "setting": "[4]", "value": "appeared normal"}, {"measurement": "antiproliferative effect (3H-thymidine incorporation)", "setting": "[5]", "value": "stronger antiproliferative effect; also recorded: dose-dependant antiproliferation"}, {"measurement": "viable cell count diminished by", "setting": "[14]", "value": "approximately 15%"}, {"measurement": "microscopic appearance of the cells", "setting": "[7]", "value": "appeared to have undergone apoptosis"}, {"measurement": "transcription of VDR-regulated genes", "setting": "[15]", "value": "increased transcription"}, {"measurement": "effect on proliferation (3H-thymidine incorporation)", "setting": "[8]", "value": "almost completely inhibited"}, {"measurement": "antiproliferative effect (3H-thymidine incorporation)", "setting": "[8]", "value": "stronger antiproliferative effect; also recorded: dose-dependant antiproliferation"}, {"measurement": "viable cell count diminished by", "setting": "[16]", "value": "approximately 60%"}, {"measurement": "effect on proliferation (3H-thymidine incorporation)", "setting": "[9]", "value": "almost completely inhibited"}, {"measurement": "dose-dependency of antiproliferative effect", "setting": "[9]", "value": "most pronounced at 10^−6M"}, {"measurement": "antiproliferative effect (3H-thymidine incorporation)", "setting": "[9]", "value": "stronger antiproliferative effect; also recorded: dose-dependant antiproliferation"}, {"measurement": "decrease of proliferation compared with 1,25(OH)2D3", "setting": "[9]; dose levels of 10^−6 and 10^−7M", "value": "much stronger in decreasing the proliferation than 1,25(OH)2D3"}, {"measurement": "microscopic appearance of the cells", "setting": "[10]", "value": "appeared normal"}, {"measurement": "antiproliferative effect (3H-thymidine incorporation)", "setting": "[11]", "value": "stronger antiproliferative effect; also recorded: dose-dependant antiproliferation"}]}, {"smiles": "C=C1CC[C@H](O)C/C1=C/C=C1\\CCC[C@]2(C)[C@@H]([C@H](C)CCCC(C)(C)O)CC[C@@H]12", "note": "[25-OH-D3, 25-hydroxyvitamin D3, reference compound]", "values": [{"measurement": "Body Weight on Day 12", "setting": "[17]; 3.3 μg/kg intraperitoneally", "value": "33.5 ± 1", "unit": "grams"}, {"measurement": "Body Weight On Day 0", "setting": "[17]; 3.3 μg/kg intraperitoneally", "value": "31.5 ± 1.56", "unit": "grams"}, {"measurement": "Body Weight on Day 12", "setting": "[17]; 33 μg/kg intraperitoneally", "value": "30.66 ± 2", "unit": "grams"}, {"measurement": "Body Weight On Day 0", "setting": "[17]; 33 μg/kg intraperitoneally", "value": "28.9 ± 2", "unit": "grams"}, {"measurement": "VDR-binding ability", "setting": "[18]", "value": "significantly low VDR-binding ability"}, {"measurement": "DNA fragmentation (apoptosis)", "setting": "[6]", "value": "no such DNA cleavage was observed"}, {"measurement": "condition of the mice at the end of treatment", "setting": "[19]", "value": "very sick, and most of them died"}]}, {"smiles": "O=C(CBr)OCc1ccccc1", "note": "[benzylbomacetate, benzylbormoacetate, reference compound]", "values": [{"measurement": "antiproliferative effect (3H-thymidine incorporation)", "setting": "[5]", "value": "no effect"}, {"measurement": "antiproliferative effect (3H-thymidine incorporation)", "setting": "[9]", "value": "no effect"}]}, {"smiles": "O=C(O)CBr", "note": "[bromoacetic acid, reference compound]", "values": [{"measurement": "antiproliferative effect (3H-thymidine incorporation)", "setting": "[5]", "value": "no effect"}, {"measurement": "antiproliferative effect (3H-thymidine incorporation)", "setting": "[9]", "value": "no effect"}, {"measurement": "growth-inhibitory effect (3H-thymidine incorporation)", "setting": "[11]; PC-3 cells, 10^−6M", "value": "not antiproliferative"}]}]}
